Measured values from patent US20250206730A1 (AUTOTELIC BIO INC., priority 2022, published 2025).

Assays:
[1] = test system: TGF-β signaling; experiment: Assay for evaluating cellular inhibition of TGF-β signaling, 4T1 (SBE-luc2P) luciferase reporter; assay type: cell-based; conditions: Mus musculus, 4T1, 4T1 (SBE-luc2P) transient pool, 0.2% FBS, 2 h pre-treatment, TGF-β1 2 ng/mL 24 h; read-out: IC50 4T1 Cell
Procedure, shortened: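 Luminescence from SMAD-binding-element luciferase was measured after 24 h of 2 ng/mL TGF-β1 at 37 °C, following 2 h compound pre-treatment. HEK293 stable reporter cells were used at 2.5×10^4/well in 0.5% FBS (~80% confluent); the 4T1 SBE-luc2P transient pool at 6×10^3/well in 0.2% FBS (~60% confluent).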

[2] = molecular target: T1, ALK5 kinase (Homo sapiens, UniProt P36897); experiment: LanthaScreen Eu Kinase Binding Assay; conditions: Kinase Tracer 178, Eu-anti-GST Antibody, read-out: IC50 Enzyme
T1 sequence (P36897 34-503): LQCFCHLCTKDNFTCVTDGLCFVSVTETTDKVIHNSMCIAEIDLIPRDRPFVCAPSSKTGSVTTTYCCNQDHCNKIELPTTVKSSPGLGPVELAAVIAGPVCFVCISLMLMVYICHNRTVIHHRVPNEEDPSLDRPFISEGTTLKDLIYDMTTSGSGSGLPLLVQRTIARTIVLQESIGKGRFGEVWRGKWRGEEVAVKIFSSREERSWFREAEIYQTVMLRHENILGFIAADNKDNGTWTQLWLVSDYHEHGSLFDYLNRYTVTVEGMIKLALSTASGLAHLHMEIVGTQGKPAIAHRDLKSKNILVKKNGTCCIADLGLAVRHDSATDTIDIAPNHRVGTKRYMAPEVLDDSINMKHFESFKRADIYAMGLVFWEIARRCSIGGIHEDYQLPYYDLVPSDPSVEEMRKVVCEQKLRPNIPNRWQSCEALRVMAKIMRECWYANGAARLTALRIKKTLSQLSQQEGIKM
Procedure, shortened: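 Tracer-displacement TR-FRET: after 30 min RT compound–kinase preincubation, Eu-labelled anti-GST antibody plus Kinase Tracer 178 were incubated 60 min at RT. Binding was read as a lower 665 nm/615 nm emission ratio (excitation 340 nm).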

| Compound | IC50 [1] [µM] | IC50 [2] [µM] |
| --- | --- | --- |
| CCc1nc(-c2ccccc2)c(Oc2ccnc(Nc3ccc(C(N)=O)cc3)c2)s1 [A-185, 4-((4-((2-Ethyl-4-phenylthiazol-5-yl)oxy)pyridin-2-yl)amino)benzamide] | > 0.1 | < 0.1 |
| CNC(=O)c1ccc(Nc2cc(Oc3sc(C4CCCCC4)nc3-c3ccccc3)ccn2)nc1 [A-180, 6-((4-((2-Cyclohexyl-4-phenylthiazol-5-yl)oxy)pyridin-2-yl)amino)-N-methylnicotinamide] | > 0.1 | > 0.1 |
| O=C(O)c1ccc(Nc2cc(Oc3sc(C4CC4)nc3-c3ccccc3)ccn2)cc1 [A-136, 4-((4-((2-Cyclopropyl-4-phenylthiazol-5-yl)oxy)pyridin-2-yl)amino)benzoic acid] | < 0.1 | < 0.1 |
| Cc1nc(-c2ccccc2)c(Oc2ccnc(Nc3ccc(C(C)(C)O)nc3)c2)s1 [A-65, 2-(5-((4-((2-Methyl-4-phenylthiazol-5-yl)oxy)pyridin-2-yl)amino)pyridin-2-yl)propan-2-ol] | > 0.1 | < 0.1 |
| O=C(O)c1ccc(Nc2cc(Oc3sc(C4CCCCC4)nc3-c3ccccc3)ccn2)nc1 [A-178, 6-((4-((2-cyclohexyl-4-phenylthiazol-5-yl)oxy)pyridin-2-yl)amino)nicotinic acid] | > 0.1 | > 0.1 |
| CCc1nc(-c2ccccc2)c(Oc2ccnc(Nc3cccc(C(N)=O)c3)c2)s1 [A-183, 3-((4-((2-Ethyl-4-phenylthiazol-5-yl)oxy)pyridin-2-yl)amino)benzamide] | < 0.1 | < 0.1 |
| Cc1nc(-c2ccccc2)c(Oc2ccnc(Nc3ccnc(C(C)(C)O)c3)c2)s1 [A-59, 2-(4-((4-((2-Methyl-4-phenylthiazol-5-yl)oxy)pyridin-2-yl)amino)pyridin-2-yl)propan-2-ol] | > 0.1 | < 0.1 |
| Nc1nc(-c2ccccc2)c(Oc2ccnc(Nc3ccc(S(N)(=O)=O)cc3)c2)s1 [A-4, 4-((4-((2-Amino-4-phenylthiazol-5-yl)oxy)pyridin-2-yl)amino)benzenesulfonamide] | > 0.1 | < 0.1 |
| CN(C)c1nc(-c2ccccc2)c(Oc2ccnc(Nc3ccc(C(=O)O)cn3)c2)s1 [A-165, 6-((4-((2-(Dimethylamino)-4-phenylthiazol-5-yl)oxy)pyridin-2-yl)amino)nicotinic acid] | < 0.1 | < 0.1 |
| CN(C)c1nc(-c2ccccc2)c(Oc2ccnc(Nc3ccc(C(N)=O)cc3)c2)s1 [A-157, 4-((4-((2-(Dimethylamino)-4-phenylthiazol-5-yl)oxy)pyridin-2-yl)amino)benzamide] | < 0.1 | < 0.1 |
| NC(=O)c1ccc(Nc2cc(Oc3sc(N)nc3-c3ccccc3)ccn2)nc1 [A-9, 6-((4-((2-Amino-4-phenylthiazol-5-yl)oxy)pyridin-2-yl)amino)nicotinamide] | < 0.1 | < 0.1 |
| CN(C)c1nc(-c2ccccc2)c(Oc2ccnc(Nc3cccc(C(N)=O)c3)c2)s1 [A-155, 3-((4-((2-(Dimethylamino)-4-phenylthiazol-5-yl)oxy)pyridin-2-yl)amino)benzamide] | < 0.1 | < 0.1 |
| COC(=O)c1cccc(Nc2cc(Oc3sc(N)nc3-c3ccccc3)ccn2)c1 [A-3, Methyl 3-((4-((2-amino-4-phenylthiazol-5-yl)oxy)pyridin-2-yl)amino)benzoate] | > 0.1 | < 0.1 |
| CS(=O)(=O)Nc1cccc(Nc2cc(Oc3sc(N)nc3-c3ccccc3)ccn2)c1 [A-14, N-(3-((4-((2-Amino-4-phenylthiazol-5-yl)oxy)pyridin-2-yl)amino)phenyl)methanesulfonamide] | < 0.1 | < 0.1 |
| CC(C)(O)c1ccc(Nc2cc(Oc3sc(N)nc3-c3ccccc3)ccn2)cn1 [A-43, 2-(5-((4-((2-Amino-4-phenylthiazol-5-yl)oxy)pyridin-2-yl)amino)pyridin-2-yl)propan-2-ol] | > 0.1 | < 0.1 |
| COc1nc(-c2ccccc2)c(Oc2ccnc(Nc3cccc(C(N)=O)c3)c2)s1 [A-143, 3-((4-((2-Methoxy-4-phenylthiazol-5-yl)oxy)pyridin-2-yl)amino)benzamide] | > 0.1 | < 0.1 |
| CNC(=O)c1ccc(Nc2cc(Oc3sc(C4CC4)nc3-c3ccccc3)ccn2)nc1 [A-133, 6-((4-((2-Cyclopropyl-4-phenylthiazol-5-yl)oxy)pyridin-2-yl)amino)-N-methylnicotinamide] | < 0.1 | < 0.1 |
| Cc1nc(-c2ccccc2)c(Oc2ccnc(Nc3cccc(C(N)=O)c3)c2)s1 [A-60, 3-((4-((2-Methyl-4-phenylthiazol-5-yl)oxy)pyridin-2-yl)amino)benzamide] | < 0.1 | < 0.1 |

Next, values leading:

| IC50 [1] [µM] | IC50 [2] [µM] | Compound |
| --- | --- | --- |
| > 0.1 | < 0.1 | Cc1cccc(-c2nc(N)sc2Oc2ccnc(Nc3ccc(C(=O)O)cc3)c2)n1 [A-248, 4-((4-((2-Amino-4-(6-methylpyridin-2-yl)thiazol-5-yl)oxy)pyridin-2-yl)amino)benzoic acid] |
| < 0.1 | < 0.1 | CCc1nc(-c2cccc(C)n2)c(Oc2ccnc(Nc3cncc(C(N)=O)c3)c2)s1 [A-261, 5-((4-((2-Ethyl-4-(6-methylpyridin-2-yl)thiazol-5-yl)oxy)pyridin-2-yl)amino)nicotinamide] |
| > 0.1 | < 0.1 | CCc1nc(-c2cccc(C)n2)c(Oc2ccnc(Nc3cncc(C(=O)O)c3)c2)s1 [A-260, 5-((4-((2-Ethyl-4-(6-methylpyridin-2-yl)thiazol-5-yl)oxy)pyridin-2-yl)amino)nicotinic acid] |
| < 0.1 | < 0.1 | CC(C)c1nc(-c2ccccc2)c(Oc2ccnc(Nc3ccc(C(=O)O)cn3)c2)s1 [A-232, 6-((4-((2-Isopropyl-4-phenylthiazol-5-yl)oxy)pyridin-2-yl)amino)nicotinic acid] |
| < 0.1 | < 0.1 | CCc1nc(-c2cccc(C)n2)c(Oc2ccnc(Nc3ccc(C(=O)NC)cn3)c2)s1 [A-253, 6-((4-((2-Ethyl-4-(6-methylpyridin-2-yl)thiazol-5-yl)oxy)pyridin-2-yl)amino)-N-methylnicotinamide] |
| > 0.1 | < 0.1 | CCc1nc(-c2cccc(C)n2)c(Oc2ccnc(Nc3cc(C(=O)O)ccn3)c2)s1 [A-266, 2-((4-((2-Ethyl-4-(6-methylpyridin-2-yl)thiazol-5-yl)oxy)pyridin-2-yl)amino)isonicotinic acid] |
| < 0.1 | < 0.1 | CCc1nc(-c2cccc(C)n2)c(Oc2ccnc(Nc3ccc(C(N)=O)cn3)c2)s1 [A-251, 6-((4-((2-Ethyl-4-(6-methylpyridin-2-yl)thiazol-5-yl)oxy)pyridin-2-yl)amino)nicotinamide] |
| < 0.1 | < 0.1 | CCc1nc(-c2cccc(C)n2)c(Oc2ccnc(Nc3cccc(C(N)=O)c3)c2)s1 [A-258, 3-((4-((2-Ethyl-4-(6-methylpyridin-2-yl)thiazol-5-yl)oxy)pyridin-2-yl)amino)benzamide] |
| < 0.1 | < 0.1 | Cc1cccc(-c2nc(C(C)C)sc2Oc2ccnc(Nc3ccc(C(N)=O)cn3)c2)n1 [A-288, 6-((4-((2-Isopropyl-4-(6-methylpyridin-2-yl)thiazol-5-yl)oxy)pyridin-2-yl)amino)nicotinamide] |
| < 0.1 | < 0.1 | Cc1cccc(-c2nc(C)sc2Oc2ccnc(Nc3cccc(S(N)(=O)=O)c3)c2)n1 [A-303, 3-((4-((2-Methyl-4-(6-methylpyridin-2-yl)thiazol-5-yl)oxy)pyridin-2-yl)amino)benzenesulfonamide] |
| > 0.1 | > 0.1 | CNc1nc(-c2ccc3ccccc3c2)c(Oc2ccnc(Nc3cccc(S(N)(=O)=O)c3)c2)s1 [A-233, 3-((4-((2-(Methylamino)-4-(naphthalen-2-yl)thiazol-5-yl)oxy)pyridin-2-yl)amino)benzenesulfonamide] |
| < 0.1 | < 0.1 | Cc1cccc(-c2nc(N(C)C)sc2Oc2ccnc(Nc3ccc(C(=O)O)cn3)c2)n1 [A-285, 6-((4-((2-(Dimethylamino)-4-(6-methylpyridin-2-yl)thiazol-5-yl)oxy)pyridin-2-yl)amino)nicotinic acid] |
| < 0.1 | < 0.1 | Cc1cccc(-c2nc(C(F)(F)F)sc2Oc2ccnc(Nc3cccc(C(N)=O)c3)c2)n1 [A-291, 3-((4-((4-(6-Methylpyridin-2-yl)-2-(trifluoromethyl)thiazol-5-yl)oxy)pyridin-2-yl)amino)benzamide] |
| < 0.1 | < 0.1 | CCc1nc(-c2ccccc2)c(Oc2ccnc(Nc3ccc(C(=O)NC)cn3)c2)s1 [A-193, 6-((4-((2-Ethyl-4-phenylthiazol-5-yl)oxy)pyridin-2-yl)amino)-N-methylnicotinamide] |
| < 0.1 | < 0.1 | CCc1nc(-c2cccc(C)n2)c(Oc2ccnc(Nc3cccc(S(N)(=O)=O)c3)c2)s1 [A-250, 3-((4-((2-Ethyl-4-(6-methylpyridin-2-yl)thiazol-5-yl)oxy)pyridin-2-yl)amino)benzenesulfonamide] |
